Where “and” joins values, the source holds several entries; their conditions need not be identical. Identical values can stand only once.
Key:
DBA1/J mice = assay: Collagen Induced Arthritis in Mice, Arthritic Index (AI); type: in vivo; conditions: po once daily, MTX 2.5 mg/kg, Formula (II) 50 mg/kg; for Average Arthritic Index, Mean: group mean
Procedure: Collagen Induced Arthritis in Mice
Bovine Type II collagen solution is prepared by dissolving at 4 mg/ml in 0.01 M acetic acid at 4-8° C. with stirring overnight. Immunogen is prepared by emulsifying a 1:1 vol:vol combination of collagen solution and Complete Freund's Adjuvant (CFA) (M. tuberculosis H37Ra suspension: 4 mg/ml).
DBA1/J mice (male, 7-8 weeks) are weighed. The animals are anesthetized, injected subcutaneously into the shaved base of the tail with collagen/CFA (0.050 ml/mouse; 100 microgram/mouse collagen in CFA) using a 1 ml syringe fitted with a 25 G needle and returned to the cages.
After three weeks (21 d) the procedure is repeated, though now with incomplete Freund's adjuvant (IFA) instead of CFA.
Animals are observed for one week and macroscopic signs of arthritis are scored 3-times weekly (Monday, Wednesday, Friday: M, W, F). Each paw receives a score: • a) 0=no visible effects of arthritis; • b) 1=edema and/or erythema of 1 digit; • c) 2=edema and/or erythema of 2 digits; • d) 3=edema and/or erythema of more than 2 digits; • e) 4=severe arthritis of entire paw and digits.
Calculate Arthritic Index (AI) by addition of individual paw scores and record. (Maximum AI=16)
After one week, mice are allocated to groups (10 mice per group) to give similar mean AI values and similar ranges of individual AI values in each treatment group.
Dosing is started, PO (per oral) once daily for 14 days.
AI scores determined 3× weekly.

Beagle dogs [1] = assay: 13-week repeat dose toxicity in Beagle dogs, combination with methotrexate: clinical biochemistry (ALAT, ASAT); type: in vivo; conditions: for ALAT, change as compared to the control group 1 / ASAT, change as compared to the control group 1: 25 mg Formula (II)/kg/day and/or 10/2.5 mg MTX/kg/week, p.o.
Procedure: For laboratory examinations blood samples were taken from the vena cephalica or vena saphena magna from animals fasted overnight. Serum samples were collected into tubes for biochemical tests. Clinical biochemistry parameters from venous blood were determined at the times listed below:
Prior to study start: all animals of a pool of 52 dogs […]
At the end of the recovery period: all 8 recovery animals included in this study
Clinical biochemistry parameters (e.g. bile acids, alanine aminotransferase=ALAT, alkaline phosphatise=aP, aspartate aminotransferase=ASAT, gamma-glutamyl-transferase=Gamma-GT, glutamate dehydrogenase=GLDH, creatine kinase=CK) were measured using KONELAB 30i instrument (Thermo Fisher Scientific, 63303 Dreieich, Germany) as U/L (unit/liter) serum.

[2] = Toxicokinetics of formula (II) and methotrexate after individual and concomitant administration to Beagle dogs; type: in vivo; conditions: for AUC(0-inf) / Cmax / half-life: mean
Beagle dogs [3] = conditions: Beagle dogs, 13 weeks oral
Description: The animals were randomly allocated to five test groups employing a pseudo-random body weight stratification procedure that yielded groups with approximately equal mean body weights. […] A special focus of the study was to study the influence of the combination treatment on liver toxicity.

[4] = female, Beagle, dog, plasma, po, 10 mg/kg, Group 4 (+MTX), formula (II) 10 mg/kg, day 1, female Beagle dogs
[5] = female, Beagle, dog, plasma, po, 10 mg/kg, Group 4 (+MTX), formula (II) 10 mg/kg, week 13, female Beagle dogs
[6] = female, Beagle, dog, plasma, po, 25 mg/kg, Group 2, formula (II) 25 mg/kg alone, day 1, female Beagle dogs
[7] = female, Beagle, dog, plasma, po, 25 mg/kg, Group 2, formula (II) 25 mg/kg alone, week 13, female Beagle dogs
[8] = female, Beagle, dog, plasma, po, 25 mg/kg, Group 5 (+MTX), formula (II) 25 mg/kg, day 1, female Beagle dogs
[9] = female, Beagle, dog, plasma, po, 25 mg/kg, Group 5 (+MTX), formula (II) 25 mg/kg, week 13, female Beagle dogs
[10] = male, Beagle, dog, plasma, po, 10 mg/kg, Group 4 (+MTX), formula (II) 10 mg/kg, day 1, male Beagle dogs
[11] = male, Beagle, dog, plasma, po, 10 mg/kg, Group 4 (+MTX), formula (II) 10 mg/kg, week 13, male Beagle dogs
[12] = male, Beagle, dog, plasma, po, 25 mg/kg, Group 2, formula (II) 25 mg/kg alone, day 1, male Beagle dogs
[13] = male, Beagle, dog, plasma, po, 25 mg/kg, Group 2, formula (II) 25 mg/kg alone, week 13, male Beagle dogs
[14] = male, Beagle, dog, plasma, po, 25 mg/kg, Group 5 (+MTX), formula (II) 25 mg/kg, day 1, male Beagle dogs
[15] = male, Beagle, dog, plasma, po, 25 mg/kg, Group 5 (+MTX), formula (II) 25 mg/kg, week 13, male Beagle dogs

With COc1cccc(-c2ccc(NC(=O)C3=C(C(=O)O)CCC3)c(F)c2)c1 [Formula (II)] the “Average Arthritic Index, Mean” value (DBA1/J mice; study day 22) was 0, the “Arthritic Index (individual mouse)” value (DBA1/J mice; study day 22) was 0 and the “Average Arthritic Index, Mean” value (DBA1/J mice; study day 23) was 0. For the same molecule, the “Arthritic Index (individual mouse)” value (DBA1/J mice; study day 23) was 0, the “Average Arthritic Index, Mean” value (DBA1/J mice; study day 24) was 0 and the “Arthritic Index (individual mouse)” value (DBA1/J mice; study day 24) was 0. The “Average Arthritic Index, Mean” value (DBA1/J mice; study day 25) was 0, the “Arthritic Index (individual mouse)” value (DBA1/J mice; study day 25) was 0 and the “Average Arthritic Index, Mean” value (DBA1/J mice; study day 26) was 0. For the same molecule, the “Arthritic Index (individual mouse)” value (DBA1/J mice; study day 26) was 0, the “Average Arthritic Index, Mean” value (DBA1/J mice; study day 27) was 0 and the “Arthritic Index (individual mouse)” value (DBA1/J mice; study day 27) was 0. For the same molecule, the “Average Arthritic Index, Mean” value (DBA1/J mice; study day 28) was 0.7, the “Arthritic Index (individual mouse)” value (DBA1/J mice; study day 28) was 1 (3×) and 0 (4×) and 2 and the “Average Arthritic Index, Mean” value (DBA1/J mice; study day 30) was 0.9. For the same molecule, the “Arthritic Index (individual mouse)” value (DBA1/J mice; study day 30) was 1 (4×) and 0 (3×) and 2 and 3, the “Average Arthritic Index, Mean” value (DBA1/J mice; study day 31) was 2.2 and the “Arthritic Index (individual mouse)” value (DBA1/J mice; study day 31) was 2 (2×) and 3 (3×) and 1 (3×) and 4. For the same molecule, the “Average Arthritic Index, Mean” value (DBA1/J mice; study day 32) was 3.6, the “Average Arthritic Index, Mean” value (DBA1/J mice; study day 33) was 5.2 and the “Arthritic Index (individual mouse)” value (DBA1/J mice; study day 33) was 6 (2×) and 11 and 2 (2×) and 5 (3×) and 8. The “Average Arthritic Index, Mean” value (DBA1/J mice; study day 35) was 5.9, the “Arthritic Index (individual mouse)” value (DBA1/J mice; study day 35) was 5 (2×) and 12 and 4 (3×) and 3 and 8 and the “Average Arthritic Index, Mean” value (DBA1/J mice; study day 37) was 6.9. For the same molecule, the “Average Arthritic Index, Mean” value (DBA1/J mice; study day 40) was 6.9, the “Average Arthritic Index, Mean” value (DBA1/J mice; study day 42) was 7.0 and the “Average Arthritic Index, Mean” value (DBA1/J mice; study day 44) was 7.1. The “Average Arthritic Index, Mean” value (DBA1/J mice; study day 47) was 7.6, the “Changes in the biochemical parameters” value (Beagle dogs [1]; Beagle dogs, 13 weeks oral, serum) was “slight increased enzyme activities of ALAT, ASAT and GLDH as well as slight increases of the bile acid concentration in serum” and the “ALAT, change as compared to the control group 1” value (“ALAT, change” below) (Beagle dogs [1]; Test day 37, females) was “None”. The “ASAT, change as compared to the control group 1” value (from here on “ASAT, change”) (Beagle dogs [1]; Test day 37, females) was “None”, the “ALAT, change” value (Beagle dogs [1]; Test day 37, males) was “none” and the “ASAT, change” value (Beagle dogs [1]; Test day 37, males) was “none”. The “ALAT, change” value (Beagle dogs [1]; Test day 93, females) was “None”, the “ASAT, change” value (Beagle dogs [1]; Test day 93, females) was “None” and the “ALAT, change” value (Beagle dogs [1]; Test day 93, males) was “None”. The “ASAT, change” value (Beagle dogs [1]; Test day 93, males) was “None”, the “Toxicokinetic findings (plasma levels, interaction)” value ([2]; Beagle dogs, test day 1 and 85) was “clear dose response relationship” and the AUC(0-t) ([2]; female, Beagle, dog, plasma, po, 10 mg/kg) was 598 µg·h/mL. The AUC(0-inf) [2, 4] was 513 µg·h/mL, the Cmax [2, 4] was 43000 ng/mL and the half-life [2, 4] was 7.4 h. For the same molecule, the Cmax [2, 5] was 40500 ng/mL, the half-life [2, 5] was 26.7 h and the AUC(0-inf) [2, 6] was 773 µg·h/mL. For the same molecule, the Cmax [2, 6] was 56300 ng/mL, the half-life [2, 6] was 8.6 h and the AUC(0-inf) [2, 7] was 1010 µg·h/mL. For the same molecule, the Cmax [2, 7] was 66600 ng/mL, the half-life [2, 7] was 11.1 h and the AUC(0-inf) [2, 8] was 413 µg·h/mL. It also gave a Cmax [2, 8] of 33100 ng/mL, a half-life [2, 8] of 7.6 h and an AUC(0-inf) [2, 9] of 1190 µg·h/mL. It also gave a Cmax [2, 9] of 76300 ng/mL, a half-life [2, 9] of 8.1 h and an AUC(0-inf) [2, 10] of 322 µg·h/mL. The Cmax [2, 10] was 30300 ng/mL, the half-life [2, 10] was 6.3 h and the AUC(0-inf) [2, 11] was 371 µg·h/mL. The Cmax [2, 11] was 35700 ng/mL, the half-life [2, 11] was 6.3 h and the AUC(0-inf) [2, 12] was 289 µg·h/mL. For the same molecule, the Cmax [2, 12] was 22700 ng/mL, the half-life [2, 12] was 7.8 h and the AUC(0-inf) [2, 13] was 601 µg·h/mL. For the same molecule, the Cmax [2, 13] was 56900 ng/mL, the half-life [2, 13] was 6.1 h and the AUC(0-inf) [2, 14] was 858 µg·h/mL. It also gave a Cmax [2, 14] of 60000 ng/mL, a half-life [2, 14] of 8.4 h and an AUC(0-inf) [2, 15] of 659 µg·h/mL. For the same molecule, the Cmax [2, 15] was 53600 ng/mL, the half-life [2, 15] was 7.9 h and the “Influence on body weight, food and drinking water consumption and haematological parameters” value (Beagle dogs [3]) was “no influence”.

From patent publication US20120028985A1, “COMBINATIONAL THERAPY FOR TREATING AUTOIMMUNE DISEASE” (4SC AG, priority 2008, published 2012)
